# From patent publication US11872263B2, “AIMP1 protein fragment and hair growth-promoting composition containing same as active ingredient” (CUREBIO THERAPEUTICS, priority 2016, dated 2024)
# System: CD34+ hair follicle stem cells
# Assay: In vitro hair growth assay / BrdU proliferation assay with CD34+ hair follicle stem cells
# Type: cell-based, mouse
# Conditions: each peptide 100 nM, 24 hours
# Experimental: The hair of the dorsal skin of 7 weeks old male C57BL6 mice (purchased from Orient Bio Inc.) were cut with a clipper and skin tissue samples of the depilated dorsal region of the mice were collected. The collected skin tissue samples were immersed in medium using collagenase, DNase I, and hyaluronidase, and cells were isolated using Gentle MACSTM Dissociator (Miltenyi Biotec). After the cells were separated, the separated cells were incubated with a mouse CD34-Biotin antibody (Miltenyi Biotec). Cells and antibody solutions were incubated with streptavidin microbeads (Miltenyi Biotec) and then separated using LS column (Miltenyi Biotec). The separated cells were cultured in DMEM medium containing 10% FBS, 1% penicillin/streptomycin solution in humidified air of 95% 02 and 5% CO2 at 37° C.
# Cell proliferation can be confirmed using the BrdU cell proliferation assay kit (Cell Signaling). Proliferation assays were performed using protocols presented by […]. Briefly, the cells were incubated with BrdU for 2 h. The primary BrdU detection antibody was incubated for 1 hour and the secondary anti-mouse IgG, HRP-conjugate antibody was incubated for 30 minutes.
# A hair growth in vitro assay was performed using the Cyquant Assay (Thermo Fisher). […]
row,Sequence,inducing proliferation of CD34+ hair follicle stem cells (relative cell number)
1,"AEADQIIEYLKQQVSLLKEK (Homo sapiens N4 polypeptide; Neo-Pep-(11-30)) [Polypeptide N4, fragment of Neo-Pep consisting of 20 consecutive amino acids without KEKA]",didn't show any effect
2,"AVLKRLEQKGAEADQIIEYL (Homo sapiens N1 polypeptide; Neo-Pep-(1-20)) [Polypeptide N1, fragment of Neo-Pep consisting of 20 consecutive amino acids without KEKA]",didn't show any effect
3,"IEYLKQQVSLLKEKAILQAT (Homo sapiens N5 polypeptide; Neo-Pep-(17-36)) [Polypeptide N5, fragment of Neo-Pep comprising KEKA]",induced proliferation
4,"KGAEADQIIEYLKQQVSLLK (Homo sapiens N3 polypeptide; Neo-Pep-(9-28)) [Polypeptide N3, fragment of Neo-Pep consisting of 20 consecutive amino acids without KEKA]",didn't show any effect
5,"KQQVSLLKEKAILQATLREE (Homo sapiens N7 polypeptide; Neo-Pep-(21-40)) [Polypeptide N7, fragment of Neo-Pep comprising KEKA]",induced proliferation
6,"LKRLEQKGAEADQIIEYLKQ (Homo sapiens N2 polypeptide; Neo-Pep-(3-22)) [Polypeptide N2, fragment of Neo-Pep consisting of 20 consecutive amino acids without KEKA]",didn't show any effect
7,"QVSLLKEKAILQATLREEK (Homo sapiens N8 polypeptide; Neo-Pep-(23-41)) [Polypeptide N8, fragment of Neo-Pep comprising KEKA]",induced proliferation
8,"YLKQQVSLLKEKAILQATLR (Homo sapiens N6 polypeptide; Neo-Pep-(19-38)) [Polypeptide N6, fragment of Neo-Pep comprising KEKA]",induced proliferation

# System: dorsal hair of depilated C57BL6 mice
# Assay: In vivo hair regrowth after depilation of dorsal skin of mice
# Parameters: species or system mouse
# Conditions: 13 days after depilation, 100 nM polypeptide, 80 μl topical once a day
# Experimental: (§1) The hair of the dorsal skin of mice (7 weeks old male C57BL6, purchased from Orient Bio Inc.) was cut out with a clipper, and hair removal cream (Niclean, Ildong Pharmaceutical) was applied. The depilated area was about 2×2.5 cm. Mice were treated with 20% glycerol/PBS (control group), 3% Minoxidil (MNX, 140 mM), FGF7 (100 nM) or Neo-Pep of the present invention (polypeptide of SEQ ID NO: 1, 100 nM), respectively, once a day in 80 μl using brush, for 13 days (n=6 per group).
# as §1, with “Specifically, the hair” for “The hair”, “of a mouse” for “of mice”, “group). For comparative observation, the dorsal skin of the mouse was photographed before and after the beginning of the test.” for “group).”
row,Sequence,dorsal hair growth compared with control group
1,"ADQIIEYLKQQVSLL (Homo sapiens N11 polypeptide; Neo-Pep-(13-27)) [Polypeptide N11, fragment of Neo-Pep consisting of 15 amino acids without KEKA]",didn't show such effect
2,"AVLKRLEQKGAEADQ (Homo sapiens N9 polypeptide; Neo-Pep-(1-15)) [Polypeptide N9, fragment of Neo-Pep consisting of 15 amino acids without KEKA]",didn't show such effect
3,"EADQIIEYLKQQVSL (Homo sapiens N10 polypeptide; Neo-Pep-(12-26)) [Polypeptide N10, fragment of Neo-Pep consisting of 15 amino acids without KEKA]",didn't show such effect
4,"IEYLKQQVSLLKEKA (Homo sapiens N12 polypeptide; Neo-Pep-(17-31)) [Polypeptide N12, fragment of Neo-Pep consisting of 15 amino acids comprising KEKA]",grew much more
5,"KQQVSLLKEKAILQA (Homo sapiens N13 polypeptide; Neo-Pep-(21-35)) [Polypeptide N13, fragment of Neo-Pep consisting of 15 amino acids comprising KEKA]",grew much more
6,"LKEKAILQATLREEK (Homo sapiens N14 polypeptide; Neo-Pep-(27-41)) [Polypeptide N14, fragment of Neo-Pep consisting of 15 amino acids comprising KEKA]",grew much more
